Measured values reported in patent US20250041380A1, “R[…] FOR SARS-COV2 DISEASE” (priority 2021, published 2025).
Where two headings read alike, the source gives them in different places.

Columns and labels:
[1] = test system: liver cells (HepG2); assay: cells; type: cell-based; settings: Spike S1 Protein (20 μg/ml)
[2] = test system: pancreatic cells (PANC-1); assay: cells; type: cell-based; settings: Spike S1 Protein (20 μg/ml)+
[3] = test system: Immune (THP-1) cells; assay: in vitro; type: cell-based, Human; settings: 48 h
Procedure: (§1) A549 cells were plated in DMEM+10% FBS at a density of 10,000 cells/well in 96-well culture plates and incubated at 37° C. for 24 h. THP-1 cells were plated in RPMI+10% FBS at a density of 10,000 cells/well in 96-well culture plates and incubated at 37° C. for 24 h. Cells were sera-starved for 24 h. […] Untreated cells were used as control. Cells treated with dexamethasone and hydroxychloroquine were included as positive control. After treatment, cells were incubated in a 5% CO2 incubator for 48 h.

[4] = test system: Bone cells (MG-63); assay: cells; type: cell-based; settings: Spike S1 Protein (10 μg/ml); for inhibition at 0.1 µM / inhibition at 1 µM / inhibition at 10 µM / inhibition at 20 µM: Homo sapiens, MG-63
[5] = test system: Cardiac cells (H9C2); assay: cells; type: cell-based; settings: Spike S1 Protein (5 μg/ml); for inhibition at 0.1 µM / inhibition at 1 µM / inhibition at 10 µM / inhibition at 20 µM: Rattus norvegicus, H9c2
[6] = test system: Colon cells (HT-29); assay: cells; type: cell-based; settings: Spike S1 Protein (1 μg/ml); for inhibition at 0.1 µM / inhibition at 1 µM / inhibition at 10 µM / inhibition at 20 µM: Homo sapiens, HT-29
[7] = test system: Kidney cells (HEK-293); assay: cells; type: cell-based; settings: Spike S1 Protein (100 ng/ml); for inhibition at 0.1 µM / inhibition at 1 µM / inhibition at 10 µM / inhibition at 20 µM: Homo sapiens, HEK293
[8] = test system: Endothelial cells (EA.hy926); assay: cells; type: cell-based; settings: Spike S1 Protein (1 μg/ml); for inhibition at 0.1 µM / inhibition at 1 µM / inhibition at 10 µM / inhibition at 20 µM: Homo sapiens, EA.hy 926
[9] = test system: Lung (A549) cells; assay: in vitro; type: cell-based, Human; settings: 48 h
Procedure: as §1

[10] = test system: Bladder cells (T24); assay: tissue or blood; type: cell-based; settings: Spike S1 Protein (5 μg/ml)
[11] = 0.1 μM, read-out: % Inhibition (wrt Control), IL-6
[12] = 0.1 μM, read-out: % Inhibition (wrt Control), IL-8
[13] = 1 μM, read-out: % Inhibition (wrt Control), IL-6
[14] = 1 μM, read-out: % Inhibition (wrt Control), IL-8
[15] = 10 μM, read-out: % Inhibition (wrt Control), IL-6
[16] = 10 μM, read-out: % Inhibition (wrt Control), IL-8
[17] = 20 μM, read-out: % Inhibition (wrt Control), IL-6
[18] = 20 μM, read-out: % Inhibition (wrt Control), IL-8
[19] = 0.1 μM, read-out: % Inhibition (IL-6)
[20] = 0.1 μM, read-out: % Inhibition (IL-8)
[21] = 1 μM, read-out: % Inhibition (IL-6)
[22] = 1 μM, read-out: % Inhibition (IL-8)
[23] = 10 μM, read-out: % Inhibition (IL-6)
[24] = 10 μM, read-out: % Inhibition (IL-8)
[25] = 20 μM, read-out: % Inhibition (IL-6)
[26] = 20 μM, read-out: % Inhibition (IL-8)

C[C@@H]1C[C@H]2[C@@H]3CCC4=CC(=O)C=C[C@]4(C)[C@@]3(F)[C@@H](O)C[C@]2(C)[C@@]1(O)C(=O)CO [Dexamethasone]
Conc. of IL-8 ([1]; 0.1 μM): 91.4 pg/mL | Conc. of IL-8 ([1]; 1 μM): 21.5 pg/mL | Conc. of IL-8 ([1]; 10 μM): 64.4 pg/mL | Conc. of IL-8 ([1]; 20 μM): 23.9 pg/mL | inhibition at 0.1 µM ([1]; Homo sapiens, HepG2, 0.1 μM, read-out: % Inhibition (wrt Control ), IL-8): 81.7% | inhibition at 1 µM ([1]; Homo sapiens, HepG2, 1 μM, read-out: % Inhibition (wrt Control ), IL-8): 95.7% | inhibition at 10 µM ([1]; Homo sapiens, HepG2, 10 μM, read-out: % Inhibition (wrt Control ), IL-8): 87.1% | inhibition at 20 µM ([1]; Homo sapiens, HepG2, 20 μM, read-out: % Inhibition (wrt Control ), IL-8): 95.2% | Conc. of IL-8 ([2]; 0.1 μM): 330.5 pg/mL | Conc. of IL-8 ([2]; 1 μM): 296.2 pg/mL | Conc. of IL-8 ([2]; 10 μM): 342.8 pg/mL | Conc. of IL-8 ([2]; 20 μM): 255.7 pg/mL | inhibition at 0.1 µM ([2]; Homo sapiens, PANC-1, 0.1 μM, read-out: % Inhibition (wrt Control ), IL-8): 55.7% | inhibition at 1 µM ([2]; Homo sapiens, PANC-1, 1 μM, read-out: % Inhibition (wrt Control ), IL-8): 60.3% | inhibition at 10 µM ([2]; Homo sapiens, PANC-1, 10 μM, read-out: % Inhibition (wrt Control ), IL-8): 54.1% | inhibition at 20 µM ([2]; Homo sapiens, PANC-1, 20 μM, read-out: % Inhibition (wrt Control ), IL-8): 65.7% | % Viability ([3]; 0.1 μM): 110.0% | % Viability ([3]; 1 μM): 98.2% | % Viability ([3]; 5 μM): 83.1% | % Viability ([3]; 10 μM): 95.6% | % Viability ([3]; 20 μM): 104.3% | Con. of IL-8 ([4]; 0.1 μM): 407.8 pg/mL | Conc. of IL-6 ([4]; 0.1 μM): 49.3 pg/mL | Con. of IL-8 ([4]; 1 μM): 355.6 pg/mL | Conc. of IL-6 ([4]; 1 μM): 50.9 pg/mL | Con. of IL-8 ([4]; 10 μM): 400.6 pg/mL | Conc. of IL-6 ([4]; 10 μM): 46.2 pg/mL | Con. of IL-8 ([4]; 20 μM): 427.8 pg/mL | Conc. of IL-6 ([4]; 20 μM): 52.0 pg/mL | inhibition at 0.1 µM [4, 11]: 69.2% | inhibition at 0.1 µM [4, 12]: 42.4% | inhibition at 1 µM [4, 13]: 68.2% | inhibition at 1 µM [4, 14]: 49.8% | inhibition at 10 µM [4, 15]: 71.1% | inhibition at 10 µM [4, 16]: 43.4% | inhibition at 20 µM [4, 17]: 67.5% | inhibition at 20 µM [4, 18]: 39.6% | Con. of IL-8 ([5]; 0.1 μM): 31.2 | Conc. of IL-6 ([5]; 0.1 μM): 50.8 | Con. of IL-8 ([5]; 1 μM): 18.6 | Conc. of IL-6 ([5]; 1 μM): 44.5 | Con. of IL-8 ([5]; 10 μM): 29.1 | Conc. of IL-6 ([5]; 10 μM): 53.3 | Con. of IL-8 ([5]; 20 μM): 48.7 | Conc. of IL-6 ([5]; 20 μM): 51.8 | inhibition at 0.1 µM [5, 19]: 90% | inhibition at 0.1 µM [5, 20]: 97.8% | inhibition at 1 µM [5, 21]: 91.2% | inhibition at 1 µM [5, 22]: 98.7% | inhibition at 10 µM [5, 23]: 89.5% | inhibition at 10 µM [5, 24]: 98% | inhibition at 20 µM [5, 25]: 89.7% | inhibition at 20 µM [5, 26]: 96.6% | Con. of IL-8 ([6]; 0.1 μM): 44.1 pg/mL | Conc. of IL-6 ([6]; 0.1 μM): 106.0 pg/mL | Con. of IL-8 ([6]; 1 μM): 18.2 pg/mL | Conc. of IL-6 ([6]; 1 μM): 89.1 pg/mL | Con. of IL-8 ([6]; 10 μM): 53.5 pg/mL | Conc. of IL-6 ([6]; 10 μM): 73.6 pg/mL | Con. of IL-8 ([6]; 20 μM): 66.4 pg/mL | Conc. of IL-6 ([6]; 20 μM): 109.0 pg/mL | inhibition at 0.1 µM [6, 11]: 55% | inhibition at 0.1 µM [6, 12]: 93.4% | inhibition at 1 µM [6, 13]: 62.2% | inhibition at 1 µM [6, 14]: 97.3% | inhibition at 10 µM [6, 15]: 68.8% | inhibition at 10 µM [6, 16]: 92% | inhibition at 20 µM [6, 17]: 53.8% | inhibition at 20 µM [6, 18]: 90.1% | Con. of IL-8 ([7]; 0.1 μM): 447.3 pg/mL | Conc. of IL-6 ([7]; 0.1 μM): 64.5 pg/mL | Con. of IL-8 ([7]; 1 μM): 453.6 pg/mL | Conc. of IL-6 ([7]; 1 μM): 65.6 pg/mL | Con. of IL-8 ([7]; 10 μM): 551.8 pg/mL | Conc. of IL-6 ([7]; 10 μM): 79.6 pg/mL | Con. of IL-8 ([7]; 20 μM): 292.7 pg/mL | Conc. of IL-6 ([7]; 20 μM): 42.6 pg/mL | inhibition at 0.1 µM [7, 11]: 75.2% | inhibition at 0.1 µM [7, 12]: 76.6% | inhibition at 1 µM [7, 13]: 74.8% | inhibition at 1 µM [7, 14]: 76.3% | inhibition at 10 µM [7, 15]: 69.4% | inhibition at 10 µM [7, 16]: 71.2% | inhibition at 20 µM [7, 17]: 83.6% | inhibition at 20 µM [7, 18]: 84.7% | Con. of IL-8 ([8]; 0.1 μM): 1208.6 pg/mL | Con. of IL-8 ([8]; 1 μM): 1250.3 pg/mL | Conc. of IL-6 ([8]; 1 μM): 42.9 pg/mL | Con. of IL-8 ([8]; 10 μM): 1633.7 pg/mL | Conc. of IL-6 ([8]; 10 μM): 53.9 pg/mL | Con. of IL-8 ([8]; 20 μM): 1766.1 pg/mL | Conc. of IL-6 ([8]; 20 μM): 72.9 pg/mL | inhibition at 0.1 µM ([8]; 0.1 μM, read-out: % Inhibition (wrt, IL-6)): 85.7% | inhibition at 0.1 µM ([8]; 0.1 μM, read-out: % Inhibition (wrt, IL-8)): 25.2% | inhibition at 1 µM ([8]; 1 μM, read-out: % Inhibition (wrt, IL-6)): 87.3% | inhibition at 1 µM ([8]; 1 μM, read-out: % Inhibition (wrt, IL-8)): 22.6% | inhibition at 10 µM ([8]; 10 μM, read-out: % Inhibition (wrt, IL-6)): 84% | inhibition at 10 µM ([8]; 10 μM, read-out: % Inhibition (wrt, IL-8)): 0% | inhibition at 20 µM ([8]; 20 μM, read-out: % Inhibition (wrt, IL-6)): 78.4% | inhibition at 20 µM ([8]; 20 μM, read-out: % Inhibition (wrt, IL-8)): 0% | % Viability ([9]; 0.1 μM): 122.7% | % Viability ([9]; 1 μM): 76.3% | % Viability ([9]; 5 μM): 90.0% | % Viability ([9]; 10 μM): 82.6% | % Viability ([9]; 20 μM): 69.5% | Con. of IL-8 ([10]; 0.1 μM): 2458.5 | Conc. of IL-6 ([10]; 0.1 μM): 292.2 | inhibition at 0.1 µM [10, 19]: 49.4% | inhibition at 0.1 µM [10, 20]: 42.5% | Con. of IL-8 ([10]; 1 μM): 2008.8 | Conc. of IL-6 ([10]; 1 μM): 348.5 | inhibition at 1 µM [10, 21]: 39.7% | inhibition at 1 µM [10, 22]: 53% | Con. of IL-8 ([10]; 10 μM): 2198.1 | Conc. of IL-6 ([10]; 10 μM): 369.4 | inhibition at 10 µM [10, 23]: 36% | inhibition at 10 µM [10, 24]: 48.6% | Con. of IL-8 ([10]; 20 μM): 2386.4 | Conc. of IL-6 ([10]; 20 μM): 365.4 | inhibition at 20 µM [10, 25]: 36.7% | inhibition at 20 µM [10, 26]: 44.2%
